According to US20230010299A1, “HETEROCYCLIC TRPML1 AGONISTS” (LIBRA THERAPEUTICS, INC., priority 2019, published 2023):

Legend:
TRPML1 [1] = biological target: T1, TRPML1 (Homo sapiens, UniProt Q9GZU1); test: Cellular TRPML1 assay (FLIPR TETRA, GCaMP6f calcium read-out); format: cell-based; details: HEK T-REx/GCaMP6f/TRPML1 cells; Ca2+ response over 300 s, normalized to ML-SA1 50 μM; Ca2+ free or Optimem condition not given; read-out: Ec50 (Activity of TRPML1 agonists)
T1 construct: expressed in transfected cells
Procedure, shortened: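 HEK T-REx cells stably expressing TRPML1 and GCaMP6f, assayed 24 h after seeding in Ca2+-free Tyrode's (pH 7.4) or Opti-MEM. Compounds injected on FLIPR Tetra (0.5% DMSO) in dose-response from 100 μM (1:2) or 50 μM (1:3.16); fluorescence kinetics 300 s, referenced to 50 μM ML-SA1 stimulator control.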

TRPML1 [2] = biological target: T1, TRPML1; test: TRPML1 manual patch clamp on isolated enlarged endolysosomes; format: cell-based; details: whole-endolysosome recording, HEK T-REx/GcaMP6f/TRPML1 cells, luminal pH 4.6
Protocol: TRPML1 —Manual Patch Clamp
Endolysosomal electrophysiology was performed in isolated enlarged endolysosomes using a modified patch-clamp method (Dong et al., 2010). HEK T-REx/GcaMP6f/TRPML1 cells were treated with […] PIKfive inhibitor overnight. Whole-endolysosome recordings were performed on manually isolated enlarged endolysosomes (Dong et al., 2010). In brief, a patch pipette was pressed against a cell and quickly pulled away to slice the cell membrane. Enlarged endolysosomes were released into a dish and a gigaseal between the patch pipette and the enlarged endolysosome was obtained. Negative pressure or voltage steps of several hundred millivolts with millisecond duration were then applied to break into the vacuolar membrane.
Bath (internal/cytoplasmic) solution contained 140 mM K-gluconate, 4 mM NaCl, 1 mM EGTA, 2 mM MgCl2, 0.39 mM CaCl2), 20 mM HEPES (pH was adjusted with KOH to 7.2). The pipette (luminal) solution was standard extracellular solution (modified Tyrode's: 145 mM NaCl, 5 mM KCl, 2 mM CaCl2), 1 mM MgCl2, 10 mM HEPES, 10 mM MES, 10 mM glucose; the pH was adjusted with NaOH to pH 4.6).
Dilution from stock were prepared just before the experiments in the extracellular solution (0.1% final DMSO concentration). DMSO solution was obtained from AppliChem (cat. A3672).
All bath solutions were applied via a perfusion system that allowed us to achieve complete solution exchange within a few seconds.
Data were collected using an HEKA EPC 10 patch-clamp amplifier, and PatchMaster v2x73.5 software (HEKA Elektronik). Whole-endolysosome currents were digitized at 20 kHz. All experiments were conducted at room temperature, and all recordings were analyzed with pClamp 10.7 (Molecular Devices) and GraphPad Prism (V8.00).
TRPML1 current was evoked using the voltage protocol illustrated in FIG. 3, applied every 5 sec. (10 ms at −80 mV; 500 ms ramp from −120 to +40 mV; 10 ms at −80 mV); in the absence (vehicle period, i.e. 0.1% DMSO) and in the presence of the compound (agonist) under investigation.

T1 sequence (Q9GZU1 whole entry): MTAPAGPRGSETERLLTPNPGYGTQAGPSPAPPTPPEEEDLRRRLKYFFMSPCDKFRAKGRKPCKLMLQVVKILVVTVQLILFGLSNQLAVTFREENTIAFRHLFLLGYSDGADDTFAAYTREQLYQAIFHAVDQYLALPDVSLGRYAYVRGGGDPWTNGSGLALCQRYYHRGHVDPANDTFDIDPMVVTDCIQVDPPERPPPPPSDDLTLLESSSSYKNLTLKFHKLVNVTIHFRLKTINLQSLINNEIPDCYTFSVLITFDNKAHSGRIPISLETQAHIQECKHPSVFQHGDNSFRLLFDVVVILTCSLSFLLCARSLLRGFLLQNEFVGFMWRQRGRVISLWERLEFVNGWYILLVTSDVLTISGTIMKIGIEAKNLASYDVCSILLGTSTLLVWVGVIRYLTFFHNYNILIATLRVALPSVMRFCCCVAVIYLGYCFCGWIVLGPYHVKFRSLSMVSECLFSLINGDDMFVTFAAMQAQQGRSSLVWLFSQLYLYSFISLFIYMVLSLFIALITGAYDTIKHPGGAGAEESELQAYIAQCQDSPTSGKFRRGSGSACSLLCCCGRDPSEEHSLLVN

| EC50 (TRPML1 [1]) [µM] | Lysosomal Patch-Clamp Current fold increase Mean ± SEM (n) (TRPML1 [2]; 2.0 uM compound) | Lysosomal Patch-Clamp Current fold increase Mean ± SEM (n) (TRPML1 [2]; 30.0 uM compound) | SMILES |
| --- | --- | --- | --- |
| 1.6 | – | – | CN(C)S(=O)(=O)c1ccc(S(=O)(=O)Nc2ccccc2N2CCC(Oc3ccccn3)CC2)cc1 [Example 75, N1,N1-dimethyl-N4-{2-[4-(pyridin-2-yloxy)piperidin-1-yl]phenyl}benzene-1,4-disulfonamide] |
| 1.3 | – | – | CN(C)S(=O)(=O)c1ccc(S(=O)(=O)Nc2ccccc2N2CCC(C(=O)OC(C)(C)C)CC2)cc1 [Example 76, f-butyl 1-{2-[4-(dimethylsulfamoyl)benzenesulfonamido]phenyl}piperidine-4-carboxylate] |
| 1.7 | – | – | CN(C)S(=O)(=O)c1ccc(S(=O)(=O)Nc2ccccc2N2CCC(Oc3cnccn3)CC2)cc1 [Example 77, N1,N1-dimethyl-N4-{2-[4-(pyrazin-2-yloxy)piperidin-1-yl]phenyl} benzene-1,4-disulfonamide] |

The next lines start with the molecule.

| SMILES | EC50 (TRPML1 [1]) [µM] | Lysosomal Patch-Clamp Current fold increase Mean ± SEM (n) (TRPML1 [2]; 2.0 uM compound) | Lysosomal Patch-Clamp Current fold increase Mean ± SEM (n) (TRPML1 [2]; 30.0 uM compound) |
| --- | --- | --- | --- |
| CN(C)S(=O)(=O)c1ccc(S(=O)(=O)NC2CCCCC2N2CCC(Oc3ccccc3)CC2)cc1 (racemic) [Example 57, N1,N1-dimethyl-N4-[2-(4-phenoxypiperidin-1-yl)cyclohexyl]benzene-1,4-disulfonamide] | 3 | 18.0 ± 8.5 (3) | – |
| CN(C)S(=O)(=O)c1ccc(S(=O)(=O)Nc2ccccc2N2CCCCC2)cc1 [Example 6, N1,N1-dimethyl-N4-[2-(piperidin-1-yl)phenyl]benzene-1,4-disulfonamide] | 1.7 | 3.3 ± 0.67 (3) | – |
| CN(C)S(=O)(=O)c1ccc(S(=O)(=O)Nc2ccccc2N2CCN(C(=O)OC(C)(C)C)CC2)cc1 [Example 13, tert-butyl 4-{2-[4-(dimethylsulfamoyl)benzenesulfonamido]phenyl}piperazine-1-carboxylate] | 2.1 | – | 27.5 ± 10.8 (2) |
